pIC50: −log10 of the molar value. ≈ marks a conversion by molar mass, not a printed value. Calls of active or inactive are those of the source. The rule behind the calls is not given here.
Columns and labels:
Mycobacterium marinum [1] = experiment: Antimycobacterial activity against Mycobacterium marinum CAMP 5644 after 21 days by two-fold serial dilution method; assay type: functional; conditions: CAMP 5644, 504 h
[2] = tested on: Mycolicibacterium smegmatis; experiment: Ratio of isoniazid MIC to compound MIC for Mycobacterium smegmatis ATCC 700084; assay type: functional
Mycobacterium marinum [3] = experiment: Ratio of isoniazid MIC to compound MIC for Mycobacterium marinum CAMP 5644; assay type: functional
Spinacia oleracea [4] = experiment: Inhibition of PS2 in spinach chloroplasts assessed as photoreduction of DCPIP measured remaining activity incubated for 2 mins in dark condition prior to testing by spectrophotometry relative to control; values are per cent of control; set-up: concentration or dose not given beside the values
[5] = Lipophilicity, log K of the compound by RP-HPLC analysis; assay type: physicochemical
[6] = tested on: Mycolicibacterium smegmatis; experiment: Antimycobacterial activity against Mycobacterium smegmatis ATCC 700084 after 3 days by two-fold serial dilution method; assay type: functional; conditions: ATCC 700084, 72 h
[7] = Cytotoxicity against human THP1 cells after 24 hrs by lactate dehydrogenase assay; assay type: cell-based; conditions: THP-1 cells, read-out: LD50
[8] = Inhibition of PS2 in spinach chloroplasts assessed as photoreduction of DCPIP incubated for 2 mins in dark condition prior to testing by spectrophotometry; set-up: species or system Spinacia oleracea
Spinacia oleracea [9] = experiment: Inhibition of PS2 in spinach chloroplasts assessed as photoreduction of DCPIP measured remaining activity incubated for 2 mins in dark condition prior to testing by spectrophotometry in presence of diphenylcarbazide relative to control; values are per cent of control; set-up: concentration or dose not given beside the values
Mycobacterium kansasii = experiment: Antimycobacterial activity against Mycobacterium kansasii DSM 44162 after 7 days by two-fold serial dilution method; assay type: functional; conditions: DSM 44162, 168 h
Spinacia oleracea [10] = experiment: Inhibition of PS2 in spinach chloroplasts assessed as reduction in chlorophyll a fluorescence emission at 0.1 to 1.2 mmol/L by fluorescence spectrophotometry

Compound	MIC (Mycobacterium marinum [1]) [µM]	Ratio [2]	Ratio (Mycobacterium marinum [3])	residual activity (Spinacia oleracea [4]) [%]	log K [5]	MIC [6] [µM]	CC50 at 24 h [7] [µM]	pIC50 [8]	residual activity (Spinacia oleracea [9]) [%]	MIC (Mycobacterium kansasii) [µM]	inhibition (Spinacia oleracea [10])
Cc1cccc(NC(=O)c2ccc3ccccc3c2O)c1	28.8 (≈ 7.99 µg/mL)	2.5	16	10	1.4254	57.7 (≈ 16 µg/mL)	> 20	4.70	95	28.8 (≈ 7.99 µg/mL)	–
CC[C@@]1(O)C(=O)OCc2c1cc1n(c2=O)Cc2cc3ccccc3nc2-1 [CAMPTOTHECIN]	–	–	–	–	–	–	0.16	–	–	–	–
O=C(Nc1ccccc1)c1ccc2ccccc2c1O	60.7 (≈ 16 µg/mL)	–	–	10	1.2302	243 (≈ 64 µg/mL)	> 20	4.50	95	15.2 (≈ 4 µg/mL)	–
COc1cccc(NC(=O)c2ccc3ccccc3c2O)c1	54.5 (≈ 16 µg/mL)	–	–	10	1.2849	> 873	–	4.63	95	> 873	–
O=C(Nc1ccc(Cl)cc1)c1ccc2ccccc2c1O	215 (≈ 64 µg/mL)	–	–	10	1.1314	215 (≈ 64 µg/mL)	> 20	4.97	95	26.8 (≈ 7.98 µg/mL)	–
O=C(Nc1cccc(C(F)(F)F)c1)c1ccc2ccccc2c1O	46.7 (≈ 15.5 µg/mL)	–	–	10	1.127	> 748	1	5.28	95	> 748	–
Cc1ccc(NC(=O)c2ccc3ccccc3c2O)cc1	115 (≈ 31.9 µg/mL)	–	–	10	1.4008	923 (≈ 256 µg/mL)	–	4.54	95	57.7 (≈ 16 µg/mL)	–
NNC(=O)c1ccncc1 [ISONIAZID]	467 (≈ 64 µg/mL)	–	–	–	–	117 (≈ 16 µg/mL)	–	–	–	–	–
COc1ccccc1NC(=O)c1ccc2ccccc2c1O	> 873	–	–	10	1.4716	> 873	–	3.70	95	> 873	–
O=C(Nc1ccccc1Cl)c1ccc2ccccc2c1O	107 (≈ 31.9 µg/mL)	–	–	10	0.8764	860 (≈ 256 µg/mL)	–	4.53	95	860 (≈ 256 µg/mL)	–
CN(C)C(=O)Nc1ccc(Cl)c(Cl)c1 [DCMU]	–	–	–	–	–	–	–	5.72	–	–	–
O=C(Nc1ccccc1C(F)(F)F)c1ccc2ccccc2c1O	96.6 (≈ 32 µg/mL)	–	–	10	0.6899	> 773	> 20	3.90	95	> 773	Active
O=C(Nc1cccc(Cl)c1)c1ccc2ccccc2c1O	107 (≈ 31.9 µg/mL)	–	–	10	1.1615	> 860	> 20	5.10	95	26.8 (≈ 7.98 µg/mL)	–
O=C(Nc1ccccc1F)c1ccc2ccccc2c1O	56.8 (≈ 16 µg/mL)	–	–	10	0.8296	228 (≈ 64.1 µg/mL)	–	4.24	95	> 910	–
O=C(Nc1ccccc1[N+](=O)[O-])c1ccc2ccccc2c1O	> 830	–	–	10	0.5014	> 830	–	–	95	> 830	–
COc1ccc(NC(=O)c2ccc3ccccc3c2O)cc1	> 873	–	–	10	1.1882	> 873	–	4.10	95	> 873	–
O=C(Nc1ccc([N+](=O)[O-])cc1)c1ccc2ccccc2c1O	104 (≈ 32.1 µg/mL)	–	–	10	0.5298	> 830	–	4.62	95	51.9 (≈ 16 µg/mL)	–
O=C(Nc1ccc(C(F)(F)F)cc1)c1ccc2ccccc2c1O	187 (≈ 62 µg/mL)	–	–	10	1.1158	> 748	0.6	4.44	95	23.3 (≈ 7.72 µg/mL)	–
O=C(Nc1cccc([N+](=O)[O-])c1)c1ccc2ccccc2c1O	> 830	–	–	10	0.6609	> 830	–	4.70	95	> 830	–
O=C(Nc1ccc(F)cc1)c1ccc2ccccc2c1O	114 (≈ 32.1 µg/mL)	–	–	10	1.0533	> 910	> 10	4.69	95	14.2 (≈ 3.99 µg/mL)	–
O=C(Nc1ccccc1Br)c1ccc2ccccc2c1O	> 748	–	–	10	0.9234	> 748	–	4.21	95	> 748	–
Cc1ccccc1NC(=O)c1ccc2ccccc2c1O	28.8 (≈ 7.99 µg/mL)	–	16	10	1.1176	231 (≈ 64.1 µg/mL)	> 20	4.20	95	115 (≈ 31.9 µg/mL)	–
O=C(Nc1ccc(Br)cc1)c1ccc2ccccc2c1O	46.7 (≈ 16 µg/mL)	2.5	–	10	1.1224	46.7 (≈ 16 µg/mL)	> 20	5.02	95	23.3 (≈ 7.97 µg/mL)	–
O=C(Nc1cccc(F)c1)c1ccc2ccccc2c1O	28.4 (≈ 7.99 µg/mL)	–	16	10	1.0763	910 (≈ 256 µg/mL)	> 10	4.81	95	28.4 (≈ 7.99 µg/mL)	–
O=C(Nc1cccc(Br)c1)c1ccc2ccccc2c1O	> 748	–	–	10	1.1784	> 748	> 20	5.09	95	> 748	–

— ChEMBL document CHEMBL2440071, “Antimycobacterial and herbicidal activity of ring-substituted 1-hydroxynaphthalene-2-carboxanilides” (Bioorg Med Chem, 2013)
